Laboratory results taken from ChEMBL document CHEMBL5352386 (Eur J Med Chem, 2022).
The source made the active and inactive calls. The calls are words filed in the database; no cut-off is given here.

How the values were obtained:
Mus musculus [1] = experiment: Neuroprotective activity against Abeta42 induced cognition impairement in AD mouse model assessed as reduction in latency time to platform at 10 mg/kg, po measured after 14 days by Morris water maze analysis; type: functional, organism-based; details: time 14.0 day
Mus musculus [2] = experiment: Neuroprotective activity against Abeta42 induced cognition impairement in AD mouse model assessed as reduction in confusion of escape trajectory at 10 mg/kg, po measured after 14 days; type: functional, organism-based; details: time 14.0 day
SH-SY5Y [3] = experiment: Cytotoxicity against human SH-SY5Y cells assessed as survival rate at 2.5 uM measured after 24 hrs by MTT assay relative to control; type: functional; details: read-out: Survival
PC-12 [4] = experiment: Cytotoxicity against rat PC12 cells assessed as inhibition of cell growth measured after 24 hrs by MTT assay; type: functional, cell-based; details: PC-12, 24 h
[5] = Cytotoxicity against mouse BV-2 cells assessed as survival rate at 100 uM measured after 24 hrs by MTT assay relative to control; type: toxicity, cell-based; details: read-out: Survival
Cholinesterase [6] = biological target: Cholinesterase (Homo sapiens, UniProt P06276); experiment: Inhibition of human BuChE using butyrylthiocholine iodide as substrate incubated for 10 mins followed by substrate addition by DTNB-reagent based Ellman's colorimetric assay
Chain of Cholinesterase (Homo sapiens, UniProt P06276) (P06276 whole entry): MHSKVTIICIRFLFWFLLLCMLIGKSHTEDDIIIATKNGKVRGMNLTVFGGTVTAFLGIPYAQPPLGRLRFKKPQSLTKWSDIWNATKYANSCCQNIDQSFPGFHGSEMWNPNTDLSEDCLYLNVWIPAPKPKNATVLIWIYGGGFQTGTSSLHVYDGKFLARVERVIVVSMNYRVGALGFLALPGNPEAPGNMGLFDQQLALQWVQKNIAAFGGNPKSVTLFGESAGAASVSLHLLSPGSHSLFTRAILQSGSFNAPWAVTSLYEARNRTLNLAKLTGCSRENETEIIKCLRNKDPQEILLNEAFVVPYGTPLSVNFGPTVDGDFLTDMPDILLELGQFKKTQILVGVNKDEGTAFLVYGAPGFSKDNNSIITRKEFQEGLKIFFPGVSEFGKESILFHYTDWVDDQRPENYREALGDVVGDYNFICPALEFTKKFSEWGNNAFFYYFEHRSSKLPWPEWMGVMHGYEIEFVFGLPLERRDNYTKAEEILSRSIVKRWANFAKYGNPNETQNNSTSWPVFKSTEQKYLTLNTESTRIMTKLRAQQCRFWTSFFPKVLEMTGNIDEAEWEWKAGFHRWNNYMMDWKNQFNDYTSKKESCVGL

Cholinesterase [7] = biological target: Cholinesterase (Equus caballus, UniProt P81908); experiment: Inhibition of equine serum BuChE using butyrylthiocholine iodide as substrate incubated for 10 mins followed by substrate addition by DTNB-reagent based Ellman's colorimetric assay
Chain of Cholinesterase (Equus caballus, UniProt P81908) (P81908 whole entry): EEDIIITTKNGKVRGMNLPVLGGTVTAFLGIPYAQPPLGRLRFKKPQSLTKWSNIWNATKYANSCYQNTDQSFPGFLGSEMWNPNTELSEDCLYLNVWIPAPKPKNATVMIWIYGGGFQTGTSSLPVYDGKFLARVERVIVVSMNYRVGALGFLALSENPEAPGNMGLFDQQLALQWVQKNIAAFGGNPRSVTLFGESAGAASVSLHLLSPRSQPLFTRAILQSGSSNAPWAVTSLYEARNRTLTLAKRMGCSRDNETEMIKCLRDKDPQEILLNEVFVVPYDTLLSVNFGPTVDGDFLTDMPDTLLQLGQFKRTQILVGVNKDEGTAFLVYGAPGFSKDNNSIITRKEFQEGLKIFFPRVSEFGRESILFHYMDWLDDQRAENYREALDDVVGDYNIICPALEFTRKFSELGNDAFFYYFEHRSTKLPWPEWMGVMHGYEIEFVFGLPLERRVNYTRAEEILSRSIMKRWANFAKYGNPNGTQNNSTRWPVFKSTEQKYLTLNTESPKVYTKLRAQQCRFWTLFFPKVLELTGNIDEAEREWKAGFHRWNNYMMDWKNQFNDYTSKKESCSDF

L02 [8] = experiment: Cytotoxicity against human L02 cells assessed as survival rate at 100 uM measured after 24 hrs by MTT assay relative to control; type: functional; details: read-out: Survival
SH-SY5Y [9] = experiment: Cytotoxicity against human SH-SY5Y cells assessed as inhibition of cell growth measured after 24 hrs by MTT assay; type: functional, cell-based
PC-12 [10] = experiment: Cytotoxicity against rat PC12 cells assessed as survival rate at 100 uM measured after 24 hrs by MTT assay relative to control; details: PC-12, 24 h, read-out: Survival
L02 [11] = experiment: Cytotoxicity against human L02 cells assessed as survival rate at 2.5 uM measured after 24 hrs by MTT assay relative to control; type: functional; details: read-out: Survival
[12] = Cytotoxicity against mouse BV-2 cells assessed as inhibition of cell growth measured after 24 hrs by MTT assay; type: toxicity, cell-based
SH-SY5Y [13] = experiment: Cytotoxicity against human SH-SY5Y cells assessed as survival rate at 100 uM measured after 24 hrs by MTT assay relative to control; type: functional; details: read-out: Survival
L02 [14] = experiment: Cytotoxicity against human L02 cells assessed as inhibition of cell growth measured after 24 hrs by MTT assay; type: functional, cell-based; details: L02, 24 h

SMILES	Activity (Mus musculus [1])	Activity (Mus musculus [2])	viability at 2.5 µM (SH-SY5Y [3])	IC50 (PC-12 [4])	viability at 24 h, 100 µM [5]	IC50 (Cholinesterase [6])	IC50 (Cholinesterase [7])	viability at 100 µM (L02 [8])	IC50 (SH-SY5Y [9])	viability at 100 µM (PC-12 [10])	viability at 2.5 µM (L02 [11])	IC50 at 24 h [12]	viability at 100 µM (SH-SY5Y [13])	IC50 (L02 [14])
COc1cc2c(cc1OC)C(=O)C(CC1CCN(Cc3ccccc3)CC1)C2 (centres undefined)	Active	Active	–	–	–	–	–	–	–	–	–	–	–	–
Nc1nonc1-c1nc2ccccc2n1CC(=O)Nc1cc(Cl)cc(Br)c1	–	–	43.6%	37800 nM	59.9%	75.7 nM	1.61 nM	80.3%	–	–	–	–	–	–
Nc1nonc1-c1nc2ccccc2n1CC(=O)Nc1cc(Br)cc(C(F)(F)F)c1	–	–	44.7%	11400 nM	56.3%	12.4 nM	4.21 nM	75.8%	–	–	–	–	–	–
Cc1cc(NC(=O)Cn2c(-c3nonc3N)nc3ccccc32)cc([N+](=O)[O-])c1	–	–	–	28800 nM	79.8%	278 nM	47.6 nM	79.1%	58900 nM	–	–	–	–	–
Nc1nonc1-c1nc2ccccc2n1CC(=O)Nc1cc(Cl)cc(Cl)c1	–	–	45.8%	13600 nM	52.1%	30.4 nM	4.27 nM	94.2%	–	–	–	–	–	–
Cc1cc(Br)cc(NC(=O)Cn2c(-c3nonc3N)nc3ccccc32)c1	–	–	31%	–	92.6%	218 nM	6.38 nM	71.4%	–	58.9%	–	–	–	–
N#Cc1cc(Cl)cc(NC(=O)Cn2c(-c3nonc3N)nc3ccccc32)c1	–	–	24.6%	–	64.7%	83.9 nM	2.04 nM	–	–	87%	44.5%	–	–	–
COc1cc(NC(=O)Cn2c(-c3nonc3N)nc3ccccc32)cc(OC)c1	–	–	24.6%	–	–	309 nM	107 nM	72.8%	–	88.8%	–	6300 nM	–	–
Nc1nonc1-c1nc2ccccc2n1CC(=O)Nc1ccc([N+](=O)[O-])c(Br)c1	–	–	–	–	–	730 nM	33.7 nM	–	–	51.4%	–	5490 nM	70.5%	5490 nM
Cc1cc(F)cc(NC(=O)Cn2c(-c3nonc3N)nc3ccccc32)c1	–	–	26.3%	–	97.5%	453 nM	57.8 nM	80%	–	75.8%	–	–	–	–
Nc1nonc1-c1nc2ccccc2n1CC(=O)Nc1cc([N+](=O)[O-])cc(C(F)(F)F)c1	–	–	–	18000 nM	57.5%	71.6 nM	0.35 nM	57.5%	15400 nM	–	–	–	–	–
COC(=O)c1cc(NC(=O)Cn2c(-c3nonc3N)nc3ccccc32)cc(C(=O)OC)c1	–	–	–	–	–	222 nM	1.48 nM	84%	58000 nM	50.5%	–	40400 nM	–	–
Cc1ccc2cc(NC(=O)Cn3c(-c4nonc4N)nc4ccccc43)ccc2n1	–	–	–	–	–	–	–	61.5%	–	–	–	–	–	–
Nc1nonc1-c1nc2ccccc2n1CC(=O)Nc1ccc([N+](=O)[O-])c(Cl)c1	–	–	–	27800 nM	52.6%	749 nM	11 nM	52.6%	24900 nM	–	–	–	–	–
Nc1nonc1-c1nc2ccccc2n1CC(=O)Nc1cc(F)cc(Cl)c1	–	–	28.1%	–	111%	155 nM	5.32 nM	91.7%	–	58%	–	–	–	–
Cc1cc(Cl)cc(NC(=O)Cn2c(-c3nonc3N)nc3ccccc32)c1	–	–	32.1%	–	56.3%	101 nM	9.16 nM	65.9%	–	54.3%	–	–	–	–
Nc1nonc1-c1nc2ccccc2n1CC(=O)Nc1cc(Cl)cc(C(F)(F)F)c1	–	–	–	46200 nM	90%	113 nM	2.63 nM	–	10600 nM	–	–	–	–	2480 nM
Nc1nonc1-c1nc2ccccc2n1CC(=O)Nc1cc(F)cc(Br)c1	–	–	44.2%	–	88.4%	62.2 nM	14.3 nM	88.4%	–	88.3%	–	–	–	–
Nc1nonc1-c1nc2ccccc2n1CC(=O)Nc1cc(Br)cc(Br)c1	–	–	27.3%	6560 nM	52%	27.9 nM	3.84 nM	85.3%	–	–	–	–	–	–
Nc1nonc1-c1nc2ccccc2n1CC(=O)Nc1cc(C(F)(F)F)cc(C(F)(F)F)c1	–	–	46.1%	–	100%	935 nM	7.72 nM	74.2%	–	50.2%	–	–	–	–
Cc1cc(C)cc(NC(=O)Cn2c(-c3nonc3N)nc3ccccc32)c1	–	–	–	–	85.9%	885 nM	13 nM	85.9%	7500 nM	69.7%	–	–	–	–
Nc1nonc1-c1nc2ccccc2n1CC(=O)Nc1cc(F)cc(F)c1	–	–	–	–	–	3680 nM	58 nM	60.6%	–	84.4%	–	25400 nM	56.2%	–
Nc1nonc1-c1nc2ccccc2n1CC(=O)Nc1ccc(F)cc1Br	–	–	22.4%	–	–	35.7 nM	119 nM	89%	–	86.6%	–	730 nM	–	–
